Laboratory results from US20250388565A1, “ESTROGEN RECEPTOR ALPHA DEGRADERS AND METHODS OF USE THEREOF” (Relay Therapeutics, Inc., priority 2022, published 2025).

biological target: T1, ERα protein (HiBiT-tagged) in ESR1_HiBiT KI MCF7 cells (Homo sapiens, UniProt P03372); test: Nano Glo HiBiT Lytic Degradation Assay; assay type: cell-based; details: 6 hours with compound, 14-point dose response 1:3, bell-shape curve fit, half-maximal effect of first Hill model, read-out: MCF7 ESR1 HiBiT - (DC50)
T1 sequence (P03372 1-595): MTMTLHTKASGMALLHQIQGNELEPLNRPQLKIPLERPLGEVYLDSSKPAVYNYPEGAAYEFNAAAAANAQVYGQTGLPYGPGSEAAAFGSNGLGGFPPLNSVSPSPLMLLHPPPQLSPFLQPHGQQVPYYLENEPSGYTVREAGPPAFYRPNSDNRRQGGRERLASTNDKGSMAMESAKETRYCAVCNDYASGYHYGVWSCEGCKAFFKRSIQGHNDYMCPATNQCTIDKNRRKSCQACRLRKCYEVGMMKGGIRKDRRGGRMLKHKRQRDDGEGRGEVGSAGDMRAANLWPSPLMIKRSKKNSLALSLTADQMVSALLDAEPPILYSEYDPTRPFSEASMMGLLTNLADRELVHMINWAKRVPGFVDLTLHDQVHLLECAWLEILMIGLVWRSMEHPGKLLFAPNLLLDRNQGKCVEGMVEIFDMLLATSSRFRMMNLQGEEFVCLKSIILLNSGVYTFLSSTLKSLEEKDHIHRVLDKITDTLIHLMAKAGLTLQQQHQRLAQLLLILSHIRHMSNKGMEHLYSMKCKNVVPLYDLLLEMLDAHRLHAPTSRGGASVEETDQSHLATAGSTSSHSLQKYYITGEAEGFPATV
Description: Selected compounds of the present disclosure were tested in a Nano Glo HiBiT Lytic Degradation Assay to measure the level of ERα protein degradation in MCF7 cells.
Cell culture: ESR1_HiBiT KI MCF7 cells were maintained in growth media without antibiotics. Cells were maintained in exponential growth phase, between 40% and 90% confluency.
Cell seeding: Cells were counted using a Vi-Cell and seeded in a 384-well flat-bottom microplate (cell culture-treated) at 4000 cells/well in 25 μL of growth medium using a BioTek MultiFlo Multimode Dispenser. Plates were incubated for 24 h at 37° C., 5% CO2, >95% relative humidity.
Compound preparation: Compounds were screened as 14-point dose response curves 1:3 dilutions. DMSO is used as the vehicle control and all wells were normalized to the same final DMSO concentration (0.1% v/v). Compounds were dosed using an Echo Acoustic Liquid Handler, 25 nL of 1000× (10 mM top concentration) DMSO stock/well. Cells were incubated with compounds for 6 hours at 37° C., 5% CO2, >95% relative humidity. Each compound was run in duplicate.
Nano Glo HiBiT Lytic Degradation Assay: HiBiT-tagged ERα protein levels were quantified using a Nano Glo HiBiT Lytic Degradation Assay following the manufacturer's protocol. Briefly, the Nano-Glo® HiBiT Lytic Reagent was prepared by diluting the LgBiT Protein reagent (1:100) and the Nano-Glo® HiBiT Lytic Substrate (1:50) into Nano-Glo® HiBiT Lytic Buffer at room temperature. The 384-well microplate were equilibrated to room temperature and 25 μL of Nano-Glo® HiBiT Lytic Reagent was added to each well. Samples were mixed by placing the 384-well microplate on an orbital shaker for 10 minutes. Luminescence was measured using an EnVision 2105 Multimode Plate Reader.
Data processing and analysis: Background signal (wells containing growth medium without cells) was subtracted from individual relative light units (RLU) values and the resulting values were normalized to the DMSO control well values. Dose responses were analyzed with Genedata Screener® using a bell-shape curve fit and the concentrations corresponding to the half-maximal effect of the first Hill model were used as DC50 values.

Row | DC50 [nM] | Structure (SMILES)
1 | 1030 | CC1(C)CCC([C@@H]2CCc3cc(O)ccc3[C@@H]2c2ccc(N3CCC(CN4CCN(c5ccc6c(c5)CN([C@H]5CCC(=O)NC5=O)C6=O)CC4)CC3)cc2)CC1 (single isomer, unassigned) [Compound I-106]
2 | 332 | CC[C@H]1CCc2cc(O)ccc2[C@H]1c1ccc(N2CCC(CN3CCN(c4ccc5c(c4)CN([C@H]4CCC(=O)NC4=O)C5=O)CC3)CC2)cc1 (single isomer, unassigned) [Compound I-111]
3 | 0.14 | CC[C@@H]1CCc2cc(O)ccc2[C@@H]1c1ccc(N2CCC(CN3CCN(c4ccc5c(c4)CN([C@H]4CCC(=O)NC4=O)C5=O)CC3)CC2)cc1 (single isomer, unassigned) [Compound I-112]
4 | 0.79 | C[C@@H]1O[C@H](C2CCCCC2)[C@H](c2ccc(N3CCC(CN4CCN(c5ccc6c(c5)CN([C@H]5CCC(=O)NC5=O)C6=O)CC4)CC3)cc2)c2ccc(O)cc21 (single isomer, unassigned) [Compound I-205, (S)-3-(5-(4-((1-(4-((1*S,3*R,4*R)-3-cyclohexyl-7-hydroxy-1-methylisochroman-4-yl)phenyl)piperidin-4-yl)methyl)piperazin-1-yl)-1-oxoisoindolin-2-yl)piperidine-2,6-dione]
5 | ≥ 10000 | O=C1CC[C@H](N2Cc3cc(N4CCN(CC5CCN(c6ccc([C@H]7c8ccc(O)cc8CO[C@H]7CC7CC7)cc6)CC5)CC4)ccc3C2=O)C(=O)N1 (single isomer, unassigned) [Compound I-231]
6 | 0.92 | O=C1CC[C@H](N2Cc3cc(N4CCN(CC5CCN(c6ccc([C@@H]7c8ccc(O)cc8CO[C@@H]7CC7CCCC7)cc6)CC5)CC4)ccc3C2=O)C(=O)N1 (single isomer, unassigned) [Compound I-232]
7 | 31 | O=C1CC[C@H](N2Cc3cc(N4CCN(CC5CCN(c6ccc([C@H]7c8ccc(O)cc8CO[C@H]7CC7CCCC7)cc6)CC5)CC4)ccc3C2=O)C(=O)N1 (single isomer, unassigned) [Compound I-233]
8 | ≥ 10000 | Cc1cc(N2CCC(CN3CCN(c4ccc5c(c4)CN([C@H]4CCC(=O)NC4=O)C5=O)CC3)CC2)cc(F)c1[C@H]1c2ccc(O)cc2CC[C@H]1C1CCCCC1 (single isomer, unassigned) [Compound I-235]
9 | 3300 | O=C1CC[C@H](N2Cc3cc(N4CCN(CC5CCN(c6ccc([C@@H]7c8ccc(O)cc8CO[C@@H]7C7CC7)cc6)CC5)CC4)ccc3C2=O)C(=O)N1 (single isomer, unassigned) [Compound I-242]
10 | 3 | O=C1CC[C@H](N2Cc3cc(N4CCN(CC5CCN(c6ccc([C@H]7c8ccc(O)cc8CO[C@H]7C7CC7)cc6)CC5)CC4)ccc3C2=O)C(=O)N1 (single isomer, unassigned) [Compound I-243]
11 | 22 | C[C@@H]1O[C@H](C2CCCCC2)[C@@H](c2ccc(N3CCC(CN4CCN(c5ccc6c(c5)CN([C@H]5CCC(=O)NC5=O)C6=O)CC4)CC3)cc2)c2ccc(O)cc21 (single isomer, unassigned) [Compound I-252]
12 | 0.45 | C[C@H]1O[C@@H](C2CCCCC2)[C@H](c2ccc(N3CCC(CN4CCN(c5ccc6c(c5)CN([C@H]5CCC(=O)NC5=O)C6=O)CC4)CC3)cc2)c2ccc(O)cc21 (single isomer, unassigned) [Compound I-253]
13 | 41 | C[C@@H]1O[C@@H](C2CCCCC2)[C@H](c2ccc(N3CCC(CN4CCN(c5ccc6c(c5)CN([C@H]5CCC(=O)NC5=O)C6=O)CC4)CC3)cc2)c2ccc(O)cc21 (single isomer, unassigned) [Compound I-254]
14 | 0.87 | C[C@H]1O[C@H](C2CCCCC2)[C@@H](c2ccc(N3CCC(CN4CCN(c5ccc6c(c5)CN([C@H]5CCC(=O)NC5=O)C6=O)CC4)CC3)cc2)c2ccc(O)cc21 (single isomer, unassigned) [Compound I-255]
15 | 18 | C[C@@]1(C2CCCCC2)OCc2cc(O)ccc2[C@@H]1c1ccc(N2CCC(CN3CCN(c4ccc5c(c4)CN([C@H]4CCC(=O)NC4=O)C5=O)CC3)CC2)cc1 (single isomer, unassigned) [Compound I-256]

The next lines start with the compound.

Row | Structure (SMILES) | DC50 [nM]
16 | O=C1CCC(N2Cc3cc(N4CCN(CC5CCN(c6ccc([C@@H]7c8ccc(O)cc8CC[C@@H]7c7cccnc7)cc6)CC5)CC4)ccc3C2=O)C(=O)N1 (single isomer, unassigned) [Compound I-107] | ≥ 10000
17 | O=C1CCC(N2Cc3cc(N4CCN(CC5CCN(c6ccc([C@H]7c8ccc(O)cc8CC[C@H]7c7cccnc7)cc6)CC5)CC4)ccc3C2=O)C(=O)N1 (single isomer, unassigned) [Compound I-108] | 17.3
18 | O=C1CC[C@H](N2Cc3cc(N4CCN(CC5CCN(c6ccc([C@@H]7c8ccc(O)cc8CC[C@@H]7c7cccc(OC(F)(F)F)c7)cc6)CC5)CC4)ccc3C2=O)C(=O)N1 (single isomer, unassigned) [Compound I-109] | 1400
19 | O=C1CC[C@H](N2Cc3cc(N4CCN(CC5CCN(c6ccc([C@H]7c8ccc(O)cc8CC[C@H]7c7cccc(OC(F)(F)F)c7)cc6)CC5)CC4)ccc3C2=O)C(=O)N1 (single isomer, unassigned) [Compound I-110] | 0.155
20 | CC(C)C[C@@H]1OCc2cc(O)ccc2[C@@H]1c1ccc(N2CCC(CN3CCN(c4ccc5c(c4)CN([C@H]4CCC(=O)NC4=O)C5=O)CC3)CC2)cc1 (single isomer, unassigned) [Compound I-221] | ≥ 10000
21 | CC(C)C[C@@H]1OCc2cc(O)ccc2[C@H]1c1ccc(N2CCC(CN3CCN(c4ccc5c(c4)CN([C@H]4CCC(=O)NC4=O)C5=O)CC3)CC2)cc1 (single isomer, unassigned) [Compound I-222] | 0.32
22 | CC(C)C[C@H]1OCc2cc(O)ccc2[C@@H]1c1ccc(N2CCC(CN3CCN(c4ccc5c(c4)CN([C@H]4CCC(=O)NC4=O)C5=O)CC3)CC2)cc1 (single isomer, unassigned) [Compound I-223] | 10
23 | CC(C)C[C@H]1OCc2cc(O)ccc2[C@H]1c1ccc(N2CCC(CN3CCN(c4ccc5c(c4)CN([C@H]4CCC(=O)NC4=O)C5=O)CC3)CC2)cc1 (single isomer, unassigned) [Compound I-224] | 0.48
24 | CC(C)[C@@H]1OCc2cc(O)ccc2[C@@H]1c1ccc(N2CCC(CN3CCN(c4ccc5c(c4)CN([C@H]4CCC(=O)NC4=O)C5=O)CC3)CC2)cc1 (single isomer, unassigned) [Compound I-226] | 59
25 | C[C@@H](C1CC1)[C@H]1CC(F)(F)c2cc(O)ccc2[C@H]1c1ccc(N2CCC(CN3CCN(c4ccc5c(c4)CN([C@H]4CCC(=O)NC4=O)C5=O)CC3)CC2)cc1 (single isomer, unassigned) [Compound I-227] | 4
26 | C[C@H](C1CC1)[C@H]1CC(F)(F)c2cc(O)ccc2[C@H]1c1ccc(N2CCC(CN3CCN(c4ccc5c(c4)CN([C@H]4CCC(=O)NC4=O)C5=O)CC3)CC2)cc1 (single isomer, unassigned) [Compound I-228] | 15
27 | O=C1CC[C@H](N2Cc3cc(N4CCN(CC5CCN(c6ccc([C@@H]7c8ccc(O)cc8CO[C@@H]7CC7CC7)cc6)CC5)CC4)ccc3C2=O)C(=O)N1 (single isomer, unassigned) [Compound I-230] | 1
28 | O=C1CC[C@H](N2Cc3cc(N4CCN(CC5CCN(c6ccc([C@H]7c8ccc(O)cc8CC[C@@]78CCCc7ccccc78)cc6)CC5)CC4)ccc3C2=O)C(=O)N1 (single isomer, unassigned) [Compound I-266] | 17
29 | C[C@H]1OC2(CCCCC2)[C@H](c2ccc(N3CCC(CN4CCN(c5ccc6c(c5)CN([C@H]5CCC(=O)NC5=O)C6=O)CC4)CC3)cc2)c2ccc(O)cc21 (single isomer, unassigned) [Compound I-269] | 6
30 | C[C@@H]1OC2(CCCCC2)[C@@H](c2ccc(N3CCC(CN4CCN(c5ccc6c(c5)CN([C@H]5CCC(=O)NC5=O)C6=O)CC4)CC3)cc2)c2ccc(O)cc21 (single isomer, unassigned) [Compound I-270] | ≥ 10000
